# In EP0101786A1, “Use of a benzoisothiazoline derivative for the manufacture of a medicament against thrombosis and platelet aggregation” (GREEN CROSS CORPORATION, priority 1982, dated 1984):
# How the values were obtained:
# [1] = test system: platelet aggregation initiated by promoter ADP (platelet-rich plasma); test: Inhibition of ADP-induced platelet aggregation (aggregometer, nephelometry); assay type: cell-based; settings: 2 min; for inhibition at 10 µg/mL: final conc. 10 γ/ml (10.0 γ/ml); for inhibition at 3 µg/mL: final conc. 3.0 γ/ml
# Method: The inhibitory activity of BIT (1) compounds against platelet aggregation initiated by promoter ADP was determined for various amounts of the BIT (1) compounds. […] Silicon-coated cuvettes on the Aggregometer were filled with 0.8 ml of diluted platelet-rich plasma (containing 300,000 to 400,000 platelets per cmm) and 0.1 ml of solutions of the BIT (1) compounds listed in Table 1 having different concentration (0.3 y/ml, 1.0 γ/ml and 3.0 y/ml as dissolved in 100% alcohol), as well as adenosine (20 y/ml and 100 y/ml) and aspirin (500 y/ml) were added. Following 2-minute incubation, ADP was added to give a final concentration of 10^-5 M. The final volume of each sample was 1 ml. The process of platelet aggregation was monitored with the recorder pen which traced aggregation curves.
# The percent inhibition of aggregation was calculated by the following formula: [formula] wherein M represents light transmittance for maximum aggregation in 100 % ethanol (Control);
# D represents light transmittance for maximum aggregation in the specific sample.
# [2] = test system: platelets (platelet-rich plasma, ADP-aggregated); test: Acceleration of platelet disaggregation after ADP-induced maximum aggregation; assay type: cell-based; settings: 5 minutes after addition, control about 12 %
# Method: ADP was added to platelet-rich plasma as used in (1) above, and when maximum aggregation was reached, BIT (1) compound (R=n-C3H7, X-Cl) was added to check its ability to accelerate the disaggregation of platelets. In this experiment, the procedure of experiment (1) was repeated except that the BIT (1) was added after the aggregation of platelets occurred. To give final concentrations of 1.0 γ/ml, 3.0 y/ml and 6.0 y/ml as dissolved in 100 % ethanol, 0.1 ml of solutions containing 10 γ/ml, 30 γ/ml and 60 y/ml of BIT (1) were added after maximum platelet aggregation took place. As a control, 100 % ethanol was added instead of the BIT (1). The degree of disaggregation was determined by measuring the absorbance of the test samples 5 minuts after the addition of the BIT (1) as against the absorbance for maximum aggregation in that sample.
# [3] = Acute toxicity test, oral, Litchfield-Wilcoxon method; settings: mouse, in vivo, male ddy mice, suspension in distilled water with 0.5 % carboxymethyl cellulose
# Method: A group of 10 male ddy mice each weighing […] were subject to an acute toxicity test with BIT (1) (R=n-C3H7, X-Cl) which was administered to the mice orally as suspensions in distilled water for injection that contained 0.5 % of carboxymethyl cellulose.
# [4] = ADP 10^-5 M, 2-minute incubation
compound,measurement,setting,value
"Nc1ncnc2c1ncn2[C@@H]1O[C@H](CO)[C@@H](O)[C@H]1O [Adenosine, reference compound]",inhibition at 2 µg/mL,"[1]; final conc. 2 γ/ml, ADP 10^-5 M, 2-minute incubation",47%
same,inhibition at 10 µg/mL,[1]; [4],62%
"CCCCCCn1sc2cc(Cl)ccc2c1=O [BIT (R=n-C6H13) (X=Cl), 6-chloro-2-n-hexyl-1,2-benzoisothiazolin-3-one]",inhibition at 3 µg/mL,[1]; [4],100%
"CCCn1sc2cc(Cl)ccc2c1=O [BIT (R=n-C3H7) (X=Cl), 6-chloro-2-n-propyl-1,2-benzoisothiazolin-3-one]",inhibition at 0.3 µg/mL,"[1]; final conc. 0.3 γ/ml, ADP 10^-5 M, 2-minute incubation",18%
same,inhibition at 1 µg/mL,"[1]; final conc. 1.0 γ/ml, ADP 10^-5 M, 2-minute incubation",43%
same,inhibition at 3 µg/mL,[1]; [4],100%
same,disaggregation level,[2]; final concentration 1.0 γ/ml,25%
same,disaggregation level,[2]; final concentration 3.0 γ/ml,47%
same,disaggregation level,[2]; final concentration 6.0 γ/ml,64%
same,LD50,[3],6500 mg/kg
O=c1[nH]sc2cc(Cl)ccc12 [BIT (R=H) (X=Cl)],inhibition at 10 µg/mL,[1]; [4],100%
"CC(=O)Oc1ccccc1C(=O)O [Aspirin, reference compound]",inhibition at 50 µg/mL,[1]; read-out: Inhibition of platelet aggregation,0%
"CCCCCCCCCCn1sc2cc(Cl)ccc2c1=O [BIT (R=n-C10H21) (X=Cl), 6-chloro-2-n-decyl-1,2-benzoiso-thiazolin-3-one]",inhibition at 3 µg/mL,[1]; [4],100%
